According to patent publication US20050065140A1, “Serotonine reuptake inhibitor” (priority 2001, published 2005):

Legend:
[1] = target: T1, serotonin 1A receptors ([^3H]8-OH-DPAT binding, hippocampus membrane preparation) (Rattus norvegicus, UniProt P19327); experiment: [^3H]8-OH-DPAT binding test (Test Example 2); conditions: [^3H]8-OH-DPAT 2 nM, test concentration not given
T1 construct: 146 μl of the hippocampus membrane preparation (80 μg/tube in terms of protein); from tissue; host or cells: rat hippocampus membrane preparation
T1 sequence (P19327 1-422): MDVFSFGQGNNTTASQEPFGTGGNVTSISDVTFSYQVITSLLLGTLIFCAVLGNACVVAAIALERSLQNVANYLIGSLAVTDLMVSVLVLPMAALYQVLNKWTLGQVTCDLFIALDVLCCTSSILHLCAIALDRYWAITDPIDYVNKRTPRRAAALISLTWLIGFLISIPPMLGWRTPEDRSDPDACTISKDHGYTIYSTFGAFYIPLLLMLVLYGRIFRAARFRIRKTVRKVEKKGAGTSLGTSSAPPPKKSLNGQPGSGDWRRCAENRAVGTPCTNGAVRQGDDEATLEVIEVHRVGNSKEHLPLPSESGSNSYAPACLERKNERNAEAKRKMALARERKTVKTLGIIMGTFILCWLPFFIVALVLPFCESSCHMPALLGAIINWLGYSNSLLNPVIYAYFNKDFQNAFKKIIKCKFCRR
Procedure: [^3H]8-OH-DPAT Binding Test
The test was carried out according to the method^2 of Hall M. D. et al. After about one week of pre-breeding, a male rat was decapitated and the brain was immediately removed. The hippocampus was dissected from the brain on ice, and 50 mM Tris-HCl (pH=7.4) was added to the hippocampus in an amount of 40 times the wet weight of the hippocampus, followed by homogenization (3 min, 1 stroke/min) in an ice bath by the use of a Teflon-glass homogenizer. Then, the homogenate was centrifuged (4° C.) at 40,000×g for 10 minutes. The resulting precipitate was dispersed in an ice-cooled buffer solution (50 mM Tris-HCl (pH=7.4)) by the use of Hiscotron™, followed by centrifugation (4° C.) at 40,000×g for 10 minutes. Moreover, the resulting precipitate was re-suspended and the washing procedure was repeated once. The precipitate thus obtained was dispersed in an ice-cooled buffer solution (50 mM Tris-HCl (pH=7.4)) by the use of Hiscotron™, and the resulting dispersion was incubated at 37° C. for 1 hour and then centrifuged (4° C.) at 40,000×g for 10 minutes. Furthermore, the resulting precipitate was re-suspended and the washing procedure was repeated once. The membrane preparation thus obtained was suspended in the same buffer solution as described above, and then subjected to cryopreservation at −80° C.
Measurement was carried out by using a liquid for reaction (total volume: 200 μl) obtained by adding 50 μl of [^3H]8-OH-DPAT (final concentration: 2 nM), 4 μl of a solution of a test drug and 146 μl of the hippocampus membrane preparation (80 μg/tube in terms of protein) to a buffer solution containing 50 mM Tris-HCl (pH=7.4) and 4 mM CaCl2. After the liquid for reaction was allowed to react at room temperature for 30 minutes, it was immediately filtered by suction at a low pressure through glass fiber filter. The glass fiber filter was washed twice with 250 μl of a buffer solution and then added to a glass vial containing 4 ml of ACS-II (Amersham), and the radioactivity bound to receptors and remaining on the filter was measured with a liquid scintillation counter. Non-specific binding of [^3H]8-OH-DPAT was defined as the amount of [^3H]8-OH-DPAT bound in the presence of 1 μM 8-OH-DPAT.
(§1) Rate of binding inhibition was calculated by the following equation:
(§2) Rate of binding inhibition (%)=100−100×{[amount of [^3H]8-OH-DPAT bound in the presence of test substance]−[amount of [^3H]8-OH-DPAT bound in the presence of 1 μM 8-OH-DPAT]/[amount of [^3H]8-OH-DPAT bound in the absence of test substance]−[amount of [^3H]8-OH-DPAT bound in the presence of 1 μM 8-OH-DPAT]}

[2] = target: T2, [^3H]paroxetine binding (serotonin reuptake), cerebral cortex membrane preparation (Rattus norvegicus, UniProt P31652); experiment: Screening test using [^3H]paroxetine binding (Test Example 1); conditions: [^3H]paroxetine 0.15 nM, test concentration not given
T2 construct: 790 μl of the cerebral cortex membrane preparation (150 μg/tube in terms of protein); from tissue; host or cells: rat cerebral cortex membrane preparation
Procedure: Screening Test Using [^3H]Paroxetine Binding
The membrane preparation was prepared according to the method^1a) of D'amato et al. In detail, after a male rat was decapitated, the whole brain was immediately removed and the cerebral cortex was dissected therefrom under ice-cooling. A buffer solution (50 mM Tris-HCl (pH=7.4), 120 mM NaCl, 5 mM KCl) was added to the cerebral cortex in an amount of 25 times the wet weight of the cerebral cortex, followed by homogenization in an ice bath by the use of a Teflon-glass homogenizer. The homogenate was centrifuged at 4° C. and 45,000×g for 10 minutes, and the resulting precipitate was dispersed in an ice-cooled buffer solution (50 mM Tris-HCl (pH=7.4), 120 mM NaCl, 5 mM KCl) by the use of Hiscotron™, followed by centrifugation at 4° C. and 45,000×g for 10 minutes. The resulting precipitate was re-suspended and the washing procedure was repeated. The membrane preparation thus obtained was suspended in the same buffer solution as described above, and then subjected to cryopreservation at −80° C.
[^3H]paroxetine binding was measured according to the method^1b) of Habert E et al. In detail, 200 μl of a dilution (final concentration: 0.15 nM) of [^3H]paroxetine with 50 mM Tris-HCl (pH=7.4) buffer containing 120 mM NaCl and 5 mM KCl, 790 μl of the cerebral cortex membrane preparation (150 μg/tube in terms of protein), 10 μl of a solution of a test drug in dimethyl sulfoxide and 1 ml of the above-mentioned buffer solution were mixed to prepare a liquid having a total volume of 2 ml. After this liquid was allowed to react at room temperature for 60 minutes, it was immediately filtered by suction at a low pressure through glass fiber filter. The glass fiber filter was washed 4 times with 4 ml of the same buffer solution as above and then transferred to a glass vial containing 4 ml of ACS-II (Amersham), and the radioactivity remaining on the filter was measured with a liquid scintillation counter.
Non-specific binding of [^3H]paroxetine was defined as the amount of [^3H]paroxetine bound in the presence of 100 μM 5-HT.
as §1
as §2, with “of [^3H]paroxetine” for “of [^3H]8-OH-DPAT”, “of 100” for “of 1”, “μM 5-HT]/[amount” for “μM 8-OH-DPAT]/[amount”, “μM 5-HT]}” for “μM 8-OH-DPAT]}”

T2 sequence (P31652 whole entry): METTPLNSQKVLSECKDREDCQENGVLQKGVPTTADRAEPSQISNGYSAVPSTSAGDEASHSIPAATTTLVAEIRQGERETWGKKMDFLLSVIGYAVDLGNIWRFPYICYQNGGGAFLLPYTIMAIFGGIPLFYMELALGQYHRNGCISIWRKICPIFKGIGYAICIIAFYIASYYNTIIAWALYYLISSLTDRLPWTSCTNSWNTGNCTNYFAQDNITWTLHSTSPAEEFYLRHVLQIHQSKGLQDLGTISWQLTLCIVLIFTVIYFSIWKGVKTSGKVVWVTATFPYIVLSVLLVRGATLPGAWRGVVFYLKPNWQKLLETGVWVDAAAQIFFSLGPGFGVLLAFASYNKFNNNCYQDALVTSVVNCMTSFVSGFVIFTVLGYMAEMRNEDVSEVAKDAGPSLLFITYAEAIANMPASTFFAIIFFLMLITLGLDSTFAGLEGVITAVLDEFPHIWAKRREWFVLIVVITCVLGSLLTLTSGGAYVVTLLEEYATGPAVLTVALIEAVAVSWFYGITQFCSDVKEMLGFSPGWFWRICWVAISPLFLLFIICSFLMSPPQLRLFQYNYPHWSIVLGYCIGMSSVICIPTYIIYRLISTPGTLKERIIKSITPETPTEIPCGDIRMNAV

Row | SMILES | Rate of inhibition of [^3H]8-OH-DPAT binding (%) [1] [%] | Rate of inhibition of [^3H]paroxetine binding (%) [2] [%] | melting point [°C]
1 | COc1ccc(Br)c(CC2CCN(CCC3CCN(CCO)CC3)CC2)c1.Cl.Cl [Example 6, 2-(4-(2-(4-(2-Bromo-5-methoxybenzyl)-1-piperidinyl)ethyl)-1-piperidinyl)ethanol Dihydrochloride] | 71 | 87 | –
2 | CCN[C@H]1CC[C@H](CCN2CCC(Cc3cc(OC)ccc3Br)CC2)CC1.Cl.Cl [Example 38, trans-N-(4-(2-(4-(2-bromo-5-methoxybenzyl)-piperidin-1-yl)ethyl)cyclohexyl)-N-ethylamine Dihydrochloride] | 96 | 100 | –
3 | CO[C@H]1CC[C@H](CCN2CCC(Cc3cc(OC(C)C)ccc3Br)CC2)CC1.Cl [Example 44, trans-4-(2-Bromo-5-isopropoxybenzyl)-1-(2-(4-methoxycyclohexyl)ethyl)piperidine Hydrochloride] | 92 | 99 | 196
4 | CCN([C@H]1CC[C@H](CCCN2CCC(Cc3cc(OC(C)C)ccc3Br)CC2)CC1)S(C)(=O)=O.Cl [Example 46, trans-N-(4-(3-(4-(2-bromo-5-isopropoxy-benzyl)piperidin-1-yl)propyl)cyclohexyl)-N-ethylmethanesulfonamide Hydrochloride] | 65 | 100 | –
5 | COc1ccc(Br)c(CC2CCN(CC[C@H]3CC[C@H](NS(=O)(=O)N(C)C)CC3)CC2)c1.Cl [Example 47, trans-N′-(4-(2-(4-(2-bromo-5-methoxybenzyl)-piperidin-1-yl)ethyl)cyclohexyl)-N,N-dimethylsulfamide hydrochloride] | 95 | 100 | 214
6 | COc1ccc(Br)c(CC2CCN(CC[C@H]3CC[C@H](NC(=O)C(F)(F)F)CC3)CC2)c1.Cl [Example 48, trans-N-(4-(2-(4-(2-bromo-5-methoxybenzyl)-piperidin-1-yl)ethyl)cyclohexyl)-2,2,2-trifluoro-acetamide Hydrochloride] | 90 | 99 | 230
7 | CCN(CC)[C@H]1CC[C@@H](CCCN2CCC(Cc3cc(OC)ccc3Br)CC2)CC1.Cl.Cl [Example 54, cis-N-(4-(3-(4-(2-bromo-5-methoxybenzyl)-piperidin-1-yl)propyl)cyclohexyl)-N,N-diethylamine Dihydrochloride] | 99 | 80 | –
8 | CCN(CCOC)[C@H]1CC[C@H](CCN2CCC(Cc3cc(OC)ccc3Br)CC2)CC1.Cl.Cl [Example 58, trans-N-(4-(2-(4-(2-bromo-5-methoxybenzyl)-piperidin-1-yl)ethyl)cyclohexyl)-N-ethyl-N-(2-methoxyethyl)amine Dihydrochloride] | 92 | 100 | 78
9 | COc1ccc(Br)c(CC2CCN(CC[C@H]3CC[C@@H](CCO)CC3)CC2)c1.Cl [Example 64, cis-2-(4-(2-(4-(2-Bromo-5-methoxybenzyl)-piperidin-1-yl)ethyl)cyclohexyl)ethanol Hydrochloride] | 96 | 96 | 273
10 | CC(C)Oc1ccc(Br)c(CC2CCN(CC3CCc4ccccc4N3)CC2)c1.Cl.Cl (centres unmarked) [Example 65, 2-((4-(2-Bromo-5-isopropoxybenzyl)piperidin-1-yl)methyl)-1,2,3,4-tetrahydroquinoline Dihydrochloride] | 60 | 97 | –
11 | Cl.Cl.Clc1ccc(Br)c(CC2CCN(CC3CCc4ccccc4N3)CC2)c1 (centres unmarked) [Example 67, 2-((4-(2-Bromo-5-chlorobenzyl)piperidin-1-yl)methyl)-1,2,3,4-tetrahydroquinoline Dihydrochloride] | 73 | 81 | 227
12 | COc1ccc(Br)c(CC2CCN(CC3CCc4ccccc4N3)CC2)c1.Cl.Cl (centres unmarked) [Example 69, 2-((4-(2-Bromo-5-methoxybenzyl)piperidin-1-yl)methyl)-1,2,3,4-tetrahydroquinoline Dihydrochloride] | 96 | 95 | –
13 | COc1ccc(Br)c(CC2CCN(CC3CNc4ccccc4C3)CC2)c1.Cl.Cl (centres unmarked) [Example 70, 3-((4-(2-Bromo-5-methoxybenzyl)piperidin-1-yl)methyl)-1,2,3,4-tetrahydroquinoline Dihydrochloride] | 86 | 84 | –
